Results as given in patent publication US6043248A, “Alpha-substituted pyrimidine-thioalkyl and alkylether compounds as inhibitors of viral reverse transcriptase” (priority 1997, dated 2000).
Where two headings read alike, the source gives them in different places.

Experiments:
[1] = target: T1, P236L viral reverse transcriptase (Human immunodeficiency virus type 1 group M subtype B, UniProt P04585, P823L); test: inhibition of viral reverse transcriptase (P236L), cell free assay; assay type: biochemical; conditions: IC50 (Table I, P236L), 30 minutes at 37° C.
T1 construct: P236L viral reverse transcriptase is obtained by PNAS 90: 4713-4717 (1993); made in house
Outline: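 E. coli-expressed wild-type or P236L RT extracts incubated with inhibitor 30 min at 37 °C in Tris pH 8.3 with MgCl₂, NaCl, DTT, NP-40, 10 μM [35S]-dNTP, poly rC/rG template and oligo dG/dT primer. Incorporated label counted on DE81 paper; reported as % inhibition and/or IC50.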

[2] = target: T2, viral reverse transcriptase (Wild Type) (Human immunodeficiency virus type 1 group M subtype B, UniProt P04585); test: inhibition of viral reverse transcriptase (Wild Type), cell free assay; assay type: biochemical; conditions: for IC50: 30 minutes at 37° C.
T2 construct: Viral reverse transcriptase (Wild Type) is found in extracts from bacterial clones; made in house; host or cells: Escherichia coli
From the text: The utility of the pyrimidine-thioalkyl and alkylether anti-AIDS compounds of Formula IA of this invention can be determined by their ability to inhibit viral reverse transcriptase, an enzyme essential for human immunodeficiency virus replication. This enzyme has characteristics which differentiate it from other known cellular polymerases and it is a unique enzyme which is not found in uninfected cells. Viral reverse transcriptase (Wild Type) is found in extracts from bacterial clones prepared according to the procedure described in AIDS Virus Reverse Transcriptase defined by high level expression in Escherichia coli, EMBO J. 6:3133-3137 (1987). P236L viral reverse transcriptase is obtained by PNAS 90: 4713-4717 (1993). Inhibition of this enzyme is determined in a cell free assay which measures the level of radioactive precursors incorporated into DNA. Extracts prepared according to the procedure of Science, 1125-1129 (1981) are incubated in a mixture of inhibitor, 20 mM dithiothreitol, 60 mM sodium chloride, 0.05% NP-40, 10 mM magnesium chloride, 50 mM Tris pH 8.3, 10 μM [^35 S]-labeled deoxynuleoside-5'-triphosphate, 10 μg/ml RNA template (poly rC or poly rG) and 5 μg/ml DNA primer (oligo dG or oligo dT) for 30 minutes at 37° C. Incorporation of radio-labeled percursor is determined by spotting aliquots of the reaction mixture on DE81 paper, washing the papers to remove unincorporated percursor, drying and determining counts. The results (IC50 means the concentration, in μM of drug, required to inhibit the reverse transcriptase activity (P236L and Wild Type) to the extent of 50%) of various assay(s) are combined and reported as % inhibition and/or IC50 (calculated) in Table I (P236L) and Table II (Wild Type).

[3] = read-out: IC50 (Table II, Wild Type)

`CC(Sc1nc(N)cc(Cl)n1)c1cc(C2CC2)ccn1` (stereo not drawn) [Example 255] was tested, and the IC50 [1] was 100 nM and the inhibition at 1 µM ([2]; @ 1 μM) was 96%.
With `COC(=O)C(Sc1nc(N)cc(Cl)n1)c1cc(C)ccn1` (stereo not drawn) [Example 220, 4-Amino-6-chloro-2-(1-(4-methyl-2-pyridyl)-1-carbomethoxy-methyl)thio-pyrimidine] the IC50 [1] was 50000 nM and the inhibition at 50 µM [2] was 19%.
`CN(C(=O)/C=C/CSc1nc(N)cc(Cl)n1)c1ccccc1` [Example 200, (E)-N-methyl-N-phenyl-4-[(4-amino-6-chloro-2-pyrimidinyl)thio]-2-butenamide] was tested, and the IC50 [1] was 1000 nM and the inhibition at 10 µM ([2]; @ 10 μM) was 57%.
`CCc1cc(C(C)Sc2nc(N)cc(Cl)n2)ncc1OC` (stereo not drawn) [Example 245, 4-Amino-6-chloro-2-(1-(4-ethyl-5-methoxy-2-pyridyl)ethyl)thio-pyrimidine] gave an IC50 [1] of 191 nM and an IC50 [2, 3] of 343 nM.
Work on `Cc1coc2cnc([C@@H](C)Sc3nc(N)cc(C(F)(F)F)n3)cc12` [Example 298, (R)-(+)-4-Amino-6-trifluoromethyl-2-(1-(3-methylfuro[2,3c]pyridin-5-yl)ethylthio)-pyrimidine] yielded an IC50 [1] of 79 nM and an IC50 [2, 3] of 113 nM.
With `CN1CCN(C(=O)/C=C/CSc2nc(N)cc(Cl)n2)CC1` [Example 195, (E)-4-methyl-1-[4-[(4-amino-6-chloro-2-pyrimidinyl)thio]-1-oxo-2-butenyl]piperazine] the IC50 [1] was 50000 nM and the inhibition at 50 µM [2] was 40%.
`CC(Sc1nc(N)cc(Cl)n1)c1ccccn1` (stereo not drawn) [Example 211, 4-Amino-6-chloro-2-(1-(2-pyridyl)ethyl)thio-pyrimidine] showed an IC50 [1] of 46 nM and an IC50 [2, 3] of 190 nM.
In the case of `CC(Sc1nc(N)cc(C(F)(F)F)n1)c1cc2c(cn1)CCCC2` (stereo not drawn) [Example 234, 4-Amino-6-trifluoromethyl-2-(1-(3-(5,6,7,8-tetrahydro-isoquinolyl))ethyl)thio-pyrimidine], the IC50 [1] is reported as 170 nM and the IC50 [2, 3] is reported as 131 nM.
`CC(Sc1nc(N)cc(Cl)n1)c1cc2c(C(F)(F)F)coc2c(Cl)n1` (stereo not drawn) [Example 293] was tested, and the IC50 [1] was 190 nM and the IC50 [2, 3] was 345 nM.
Compound `CCc1ccnc([C@H](C)Sc2nc(N)cc(Cl)n2)c1` [Example 292, (-)-4-Amino-6-chloro-2-(1-(4-ethyl-2-pyridyl)ethyl)thio-pyrimidine] has an IC50 [1] of 17 nM and an IC50 ([2]; IC50 (Table II, Wild Type)) of 7 nM.
For `Cc1coc2cnc([C@@H](C)Sc3nc(N)cc(Cl)n3)cc12` [Example 289, (R)-(+)-4-Amino-6-chloro-2-(1-(3-methylfuro[2,3c]pyridine-5-yl)ethyl)thio-pyrimidine], the IC50 [1] was 14 nM and the IC50 [2, 3] was 29 nM.
Work on `Clc1nc(SCc2ccc3ccccc3c2)nc2c1CCN2` [Example 281, 4-chloro-2-(naphthylmethyl)thio-5,6-dihydro-7H-pyrrolo[2,3-d]pyrimidine] yielded an IC50 [1] of 1000 nM and an inhibition at 50 µM [2] of 56%.
`CC(Sc1nc(N)cc(Cl)n1)c1cc(N(C)C)ccn1` (stereo not drawn) [Example 259] was tested, and the IC50 [1] was 30 nM and the IC50 [2, 3] was 87 nM.
In the case of `CCc1ccnc(C(C)Sc2nc(N)cc(Cl)n2)c1` (stereo not drawn) [Example 216, 4-Amino-6-chloro-2-(1-(4-ethyl-2-pyridyl)ethyl)thio-pyrimidine], the IC50 [1] is reported as 30 nM and the IC50 [2, 3] is reported as 27 nM.
Work on `CC(C)c1cncc(C(C)Sc2nc(N)cc(Cl)n2)c1` (stereo not drawn) [Example 260, 4-amino-6-chloro-2-(1-(5-(1-methylethyl)-3-pyridyl)-ethyl)thio-pyrimidine] yielded an IC50 [1] of 30 nM and an IC50 [2, 3] of 70 nM.
In the case of `Cc1coc2cnc([C@H](C)Sc3nc(N)cc(C(F)(F)F)n3)cc12` [Example 297, (S)-(-)-4-Amino-6-trifluoromethyl-2-(l1-(3-methylfuro[2,3c]pyridin-5-yl)ethylthio)-pyrimidine], the IC50 [1] is reported as 64 nM and the IC50 [2, 3] is reported as 78 nM.
For `CCC(C)c1ccnc(C(C)Sc2nc(N)cc(Cl)n2)c1` (stereo not drawn) [Example 256, 4-amino-6-chloro-2-(1-(4-(1-methylpropyl)-2-pyridyl)-ethyl)thio-pyrimidine], the IC50 [1] was 100 nM and the IC50 [2, 3] was 93 nM.
`Cc1cc2cc(C(C)Sc3nc(N)cc(Cl)n3)ncc2o1` (stereo not drawn) [Example 242, 4-Amino-6-chloro-2-(1-(2-methylfuro[2,3c]pyridine-5-yl)ethyl)thio-pyrimidine] showed an IC50 [1] of 118 nM and an IC50 [2, 3] of 282 nM.
`CCc1ccnc([C@@H](C)Sc2nc(N)cc(Cl)n2)c1` [Example 291, R-(+)-4-Amino-6-chloro-2-(1-(4-ethyl-2-pyridyl)ethyl)thio-pyrimidine] showed an IC50 [1] of 80 nM and an IC50 [2, 3] of 187 nM.
`CC(Sc1nc(N)cc(Cl)n1)c1ccc(OCc2ccccc2)c(Cl)n1` (stereo not drawn) [Example 303, 4-amino-6-chloro-2-(((5-benzyloxy-6-chloro)-2-pyridyl)-ethyl)thio-pyrimidine] gave an IC50 [1] of 5000 nM and an IC50 [2, 3] of 50000 nM.
In the case of `Cc1cc2cc(C(C)Sc3nc(N)cc(C(F)(F)F)n3)nc(Cl)c2o1` (stereo not drawn) [Example 241, 4-Amino-6-trifluoromethyl-2-(1-(7-chloro-2-methylfuro[2,3c]pyridine-5-yl)ethyl)thio-pyrimidine], the IC50 [1] is reported as 334 nM and the IC50 [2, 3] is reported as 82 nM.
For `CC(C)COc1ccc(C(C)Sc2nc(N)cc(Cl)n2)nc1Cl` (stereo not drawn) [Example 307, 4-amino-6-chloro-2-(((5-isobutoxy-6-chloro)-2-pyridyl)-ethyl)thio-pyrimidine], the IC50 [1] was 1000 nM and the IC50 [2, 3] was 5000 nM.
`Cc1coc2c(Cl)nc(C(C)Sc3nc(N)cc(C(F)(F)F)n3)cc12` (stereo not drawn) [Example 295, 4-Amino-2-(1-(7-chloro-3-methyl-furo[2,3c]pyridin-5-yl)ethylthio)-6-trifluoromethyl-pyrimidine] gave an IC50 [1] of 249 nM and an IC50 [2, 3] of 212 nM.
`CC(Sc1nc(N)cc(C(F)(F)F)n1)c1cc(C(C)(C)C)ccn1` (stereo not drawn) [Example 269, 4-amino-6-trifluoromethyl-2-(1-(4-(1-dimethylethyl)-2-pyridyl)-ethyl)thio-pyrimidine] gave an IC50 [1] of 200 nM and an IC50 [2, 3] of 441 nM.
In the case of `CC(Sc1nc(N)cc(Cl)n1)c1cc(C(C)(C)C)ccn1` (stereo not drawn) [Example 210, 4-Amino-6-chloro-2-(1-(4-(1,1-dimethyl)ethyl-2-pyridyl)ethyl)thio-pyrimidine], the IC50 [1] is reported as 99 nM and the IC50 [2, 3] is reported as 80 nM.
Work on `CC(C)c1ccnc(CSc2nc(N)cc(C(F)(F)F)n2)c1` [Example 271, 4-amino-6-trifluoromethyl-2-((4-(1-methylethyl)2-pyridyl)methyl)thio-pyrimidine] yielded an IC50 [1] of 50 nM and an IC50 [2, 3] of 31 nM.
`CCNC(=O)/C=C/CSc1nc(N)cc(Cl)n1` [Example 196, (E)-N-ethyl-4-[(4-amino-6-chloro-2-pyrimidinyl)thio]-2-butenamide] was tested, and the IC50 [1] was 10000 nM and the inhibition at 50 µM [2] was 71%.
`CC(Sc1nc(N)cc(Cl)n1)c1cc2c(cn1)OCC2` (stereo not drawn) [Example 247, 4-Amino-6-chloro-2-(1-(2,3-dihydrofuro[2,3c]pyridine-5-yl)ethyl)thio-pyrimidine] was tested, and the IC50 [1] was 61 nM and the IC50 [2, 3] was 72 nM.
With `CC(Sc1nc(N)cc(Cl)n1)c1cc(C#N)ccn1` (stereo not drawn) [Example 214, 4-Amino-6-chloro-2-(1-(4-cyano-2-pyridyl)ethyl)thio-pyrimidine] the IC50 [1] was 178 nM and the IC50 [2, 3] was 487 nM.
Compound `Cc1coc2cnc(C(C)Sc3nc(N)cc(Cl)n3)cc12` (stereo not drawn) [Example 246, 4-Amino-6-chloro-2-(1-(3-methylfuro[2,3c]pyridine-5-yl)ethyl)thio-pyrimidine] has an IC50 [1] of 31 nM and an IC50 [2, 3] of 24 nM.
`CC(Sc1nc(N)cc(Cl)n1)c1cc(C2CCCC2)ccn1` (stereo not drawn) [Example 253] gave an IC50 [1] of 200 nM and an IC50 [2, 3] of 203 nM.
Compound `CCN(CC)C(=O)/C=C/C(C)Sc1nc(N)cc(Cl)n1` (stereo not drawn) [Example 207, (E)-N,N-Diethyl-4-[(4-amino-6-chloro-2-pyrimidinyl)thio]-2-pentenamide] has an IC50 [1] of 68 nM and an IC50 [2, 3] of 49 nM.
`CC(C)c1ccnc(C(C)Sc2nc(N)c(Br)c(Cl)n2)c1` (stereo not drawn) [Example 225] gave an IC50 [1] of 67 nM and an IC50 [2, 3] of 101 nM.
For `C=Cc1cc(C(C)Sc2nc(N)cc(Cl)n2)nc(Cl)c1OC` (stereo not drawn) [Example 244, 4-Amino-6-chloro-2-(1-(6-chloro-5-methoxy-4-vinyl-2-pyridyl)ethyl)thio-pyrimidine], the IC50 [1] was 186 nM and the IC50 [2, 3] was 141 nM.
Compound `CC(Sc1nc(N)cc(C(F)(F)F)n1)c1cc2ccoc2cn1` (stereo not drawn) [Example 239, 4-Amino-6-trifluoromethyl-2-(1-(furo[2,3-c]pyridin-5-yl)ethyl)thio-pyrimidine] has an IC50 [1] of 88 nM and an IC50 [2, 3] of 50 nM.
For `CC(Sc1nc(N)cc(Cl)n1)c1cc2ccoc2c(Cl)n1` (stereo not drawn) [Example 237, 4-Amino-6-chloro-2-(1-(7-chlorofuro[2,3c]pyridine-5-yl)ethyl)thio-pyrimidine], the IC50 [1] was 26 nM and the IC50 [2, 3] was 15 nM.
